This is an account of results in ChEMBL document CHEMBL3808315, “Discovery of Pyrazolopyridones as a Novel Class of Gyrase B Inhibitors Using Structure Guided Design” (ACS Med Chem Lett, 2016).

Molecules are shown by their SMILES. pIC50: −log10 of the molar value. Values after ≈ are worked out from the molar mass of the structure shown. A value given as a limit tells only on which side of the number the result lay.

One assay concerns the target DNA gyrase subunit B (Staphylococcus aureus, UniProt P0A0K8). Nature of the assay: Inhibition of Staphylococcus aureus DNA gyraseB ATPase activity using linear pBR322 DNA substrate incubated for 30 mins by fluorescence polarization assay. For orientation: Fluorescence polarisation rises when a labelled molecule tumbles more slowly, as on binding a larger partner.
In assay [1] the test system is Staphylococcus aureus. Nature of the assay: Antibacterial activity against methicillin-susceptible Staphylococcus aureus 42 incubated for 18 to 24 hrs by broth microdilution assay. The class given is functional.
Assay [2] relates to Staphylococcus aureus. Nature of the assay: Antibacterial activity against methicillin-resistant Staphylococcus aureus 1118 incubated for 18 to 24 hrs by broth microdilution assay. The class given is functional. For orientation: Dilution methods test growth across graded concentrations, often in twofold steps.
Another assay deals with Streptococcus pneumoniae. Nature of the assay: Antibacterial activity Streptococcus pneumoniae ATCC 6303 incubated for 18 to 24 hrs by broth microdilution assay. It counts as functional.
In assay [3] the target is DNA topoisomerase 4 subunit B (Staphylococcus aureus, UniProt P0C1S7). Nature of the assay: Inhibition of Staphylococcus aureus DNA parE ATPase activity incubated for 30 mins by fluorescence polarization assay.
Another assay deals with Enterococcus faecium. The assay is described as follows: Antibacterial activity Enterococcus faecium ATCC 6569 incubated for 18 to 24 hrs by broth microdilution assay. It counts as functional.
Assay [4] deals with Staphylococcus aureus. The assay is described as follows: Antibacterial activity against ciprofloxacin/methicillin-resistant Staphylococcus aureus 1721 incubated for 18 to 24 hrs by broth microdilution assay. The class given is functional.

Molecule `CCCn1c(=O)ccc2c(-c3cncs3)n[nH]c21` showed a pIC50 on DNA gyrase subunit B of 6.55. Moreover, in the assay with Staphylococcus aureus [1], the MIC was > 32 µg/mL.

As for `CCCn1c(=O)ccc2c(-c3cnc(-c4ccc(CN5CCOCC5)nc4)s3)n[nH]c21`, the pIC50 on DNA gyrase subunit B was > 8.10. In addition, inhibition of growth against Staphylococcus aureus [1] (MIC) required 0.5 µg/mL (≈ 1.15 µM).

For `CCn1c(=O)c(C)cc2c(-c3cnc(-c4cccnc4)s3)n[nH]c21`, the pIC50 on DNA gyrase subunit B is 7.46. The molecule also gave an MIC in the assay on Staphylococcus aureus [1] of 2 µg/mL (≈ 5.93 µM).

As to `CCCn1c(=O)ccc2c(-c3cnc(-c4ccc(N(C)C)nc4)s3)n[nH]c21`, the pIC50 against DNA gyrase subunit B was 7.82. For the same molecule, in the assay with Staphylococcus aureus [1], the MIC is 0.5 µg/mL (≈ 1.31 µM).

`CCCn1c(=O)ccc2c(-c3cnc(-c4ccc(C(=O)N(C)C)nc4)s3)n[nH]c21` gave a pIC50 at DNA gyrase subunit B of 8.10. In the assay with Staphylococcus aureus [1], this molecule returned an MIC of 2 µg/mL (≈ 4.9 µM).

Molecule `O=c1ccc2c(-c3cnc(-c4cccnc4)s3)n[nH]c2[nH]1` had a pIC50 against DNA gyrase subunit B of 6.57. The MIC against Staphylococcus aureus [1] was > 32 µg/mL.

With `CCCn1c(=O)ccc2c(-c3cnc(-c4ccc(C(=O)OC)nc4)s3)n[nH]c21`, the pIC50 on DNA gyrase subunit B was 7.82. Also, the MIC with Staphylococcus aureus [1] came out at 0.5 µg/mL (≈ 1.26 µM).

The molecule `CCCn1c(=O)ccc2c(-c3cnc(-c4ccc(N5CCN(C)CC5)nc4)s3)n[nH]c21` gave a pIC50 against DNA gyrase subunit B of 8.10. The molecule further had an MIC against Staphylococcus aureus [1] of 2 µg/mL (≈ 4.59 µM).

`CCCn1c(=O)ccc2c(-c3nc(C(=O)OC)c(-c4cccnc4)s3)n[nH]c21` showed a pIC50 on DNA gyrase subunit B of 8.22. Moreover, the MIC against Staphylococcus aureus [1] is 0.25 µg/mL (≈ 0.632 µM).

On DNA gyrase subunit B, `CCCn1c(=O)ccc2c(-c3cnc(-c4ccc(CN(CC)CC)nc4)s3)n[nH]c21` had a pIC50 of 8.05. For the same molecule, in the assay on Staphylococcus aureus [1], the MIC came to 4 µg/mL (≈ 9.47 µM).

For `CCn1c(=O)ccc2c(-c3cnc(-c4cccnc4)s3)n[nH]c21`, the MIC amounted to 2 µg/mL (≈ 6.18 µM) in the assay on Staphylococcus aureus [2]; 4 µg/mL (≈ 12.4 µM) in the assay with Streptococcus pneumoniae; 4 µg/mL (≈ 12.4 µM) in the assay on Enterococcus faecium; 4 µg/mL (≈ 12.4 µM) in the assay with Staphylococcus aureus [4]; 2 µg/mL (≈ 6.18 µM) against Staphylococcus aureus [1]. Further, the pIC50 was 6.13 in assay [3] and 7.70 at DNA gyrase subunit B.

`COc1c(N2C[C@@H]3CCCN[C@@H]3C2)c(F)cc2c(=O)c(C(=O)O)cn(C3CC3)c12` [MOXIFLOXACIN] registered an MIC with Staphylococcus aureus [1] of 0.06 µg/mL (≈ 0.149 µM).

`CCCn1c(=O)ccc2c(-c3cnc(-c4ccc(C(=O)NCCN(CC)CC)nc4)s3)n[nH]c21`: at DNA gyrase subunit B, the pIC50 is > 8.10. The MIC against Staphylococcus aureus [1] turned out to be 1 µg/mL (≈ 2.09 µM).

Regarding `CCCn1c(=O)ccc2c(-c3cnc(-c4ccc(C(=O)NCCN5CCOCC5)nc4)s3)n[nH]c21`, the pIC50 against DNA gyrase subunit B was 7.89. For the same molecule, the MIC against Staphylococcus aureus [1] came out at 2 µg/mL (≈ 4.05 µM).

Take `Cc1cc(=O)[nH]c2[nH]nc(-c3cnc(-c4cccnc4)s3)c12`: the pIC50 on DNA gyrase subunit B was 5.49.

Take `CCCn1c(=O)ccc2c(-c3ncc(-c4cccnc4)s3)n[nH]c21`: on DNA gyrase subunit B, the pIC50 is 8.05. In addition, the MIC in the assay with Staphylococcus aureus [1] came to 4 µg/mL (≈ 11.9 µM).

With `O=c1cc(-c2ccccc2)c2c(-c3cnc(-c4cccnc4)s3)n[nH]c2[nH]1`, the pIC50 against DNA gyrase subunit B is 5.88.

On to `CCCn1c(=O)ccc2c(-c3cnc(-c4ccc(CO)nc4)s3)n[nH]c21`, for which the pIC50 on DNA gyrase subunit B was > 8.10. The MIC with Staphylococcus aureus [1] was 0.25 µg/mL (≈ 0.68 µM).

For the molecule `C=CCn1c(=O)ccc2c(-c3cnc(-c4cccnc4)s3)n[nH]c21`, at DNA gyrase subunit B, the pIC50 is 8.40. The molecule further yielded an MIC against Staphylococcus aureus [1] of 0.25 µg/mL (≈ 0.745 µM).

Consider `CCCn1c(=O)ccc2c(-c3cnc(-c4ccc(C)nc4)s3)n[nH]c21`, for which the pIC50 against DNA gyrase subunit B is > 8.10. The lowest concentration to inhibit growth in the assay on Staphylococcus aureus [1] (MIC) was 0.25 µg/mL (≈ 0.711 µM).

`O=c1ccc2c(-c3cnc(-c4cccnc4)s3)n[nH]c2n1CCO`: the pIC50 against DNA gyrase subunit B was 6.25. For the same molecule, the MIC against Staphylococcus aureus [1] was > 32 µg/mL.

Take `CCCn1c(=O)ccc2c(C3CCN(c4nc(C(=O)O)c(C)s4)CC3)n[nH]c21`: the negative-log IC50 (pIC50) against DNA gyrase subunit B is 6.72. For the same molecule, the MIC with Staphylococcus aureus [1] was > 32 µg/mL.

With `Cn1c(=O)ccc2c(-c3cnc(-c4cccnc4)s3)n[nH]c21`, on DNA gyrase subunit B, the pIC50 was 7.29. Further, the MIC in the assay with Staphylococcus aureus [1] is > 32 µg/mL.

At DNA gyrase subunit B, `CCCn1c(=O)ccc2c(-c3cnc(-c4ccc(C(C)C)nc4)s3)n[nH]c21` had a pIC50 of 7.64. The MIC in the assay on Staphylococcus aureus [1] was 1 µg/mL (≈ 2.64 µM).

As for `CCCn1c(=O)ccc2c(-c3cnc(-c4ccc(CN5CCN(C)CC5)nc4)s3)n[nH]c21`, on DNA gyrase subunit B, the pIC50 is 8.00. Also, in the assay on Staphylococcus aureus [1], the MIC turned out to be 4 µg/mL (≈ 8.9 µM).

Take `CCn1c(=O)c(CO)cc2c(-c3cnc(-c4cccnc4)s3)n[nH]c21`: at DNA gyrase subunit B, the pIC50 was 6.69. The MIC against Staphylococcus aureus [1] is > 32 µg/mL.

Take `CCCn1c(=O)ccc2c(-c3cnc(-c4cccnc4)s3)n[nH]c21`: the MIC in the assay on Staphylococcus aureus [2] came out at 0.06 µg/mL (≈ 0.178 µM); against Streptococcus pneumoniae, 0.25 µg/mL (≈ 0.741 µM); in the assay with Enterococcus faecium it was 0.125 µg/mL (≈ 0.37 µM); in the assay with Staphylococcus aureus [4], 0.06 µg/mL (≈ 0.178 µM); against Staphylococcus aureus [1], 0.06 µg/mL (≈ 0.178 µM). Besides, the pIC50 in assay [3] was 6.74; on DNA gyrase subunit B, 8.22.

With `CCn1c(=O)c(C(=O)NC)cc2c(-c3cnc(-c4cccnc4)s3)n[nH]c21`, on DNA gyrase subunit B, the pIC50 is 5.48. Moreover, the MIC in the assay on Staphylococcus aureus [1] was > 32 µg/mL.

Turning to `CCCn1c(=O)ccc2c(-c3nc(C(=O)N(C)C)c(-c4cccnc4)s3)n[nH]c21`, the pIC50 against DNA gyrase subunit B was 7.89. In the assay on Staphylococcus aureus [1], this molecule gave an MIC of 4 µg/mL (≈ 9.79 µM).

Usually pIC50 stands for −log10 of the IC50, conventionally taken in molar units. Low values mean a high IC50, high ones a low IC50. What is called MIC is the lowest concentration found to suppress growth. Lower therefore signals inhibition by little substance.
